Measured values: US6482849B1, “Inhibitors of α4β1 mediated cell adhesion” (Tanabe Seiyaku Co., Ltd., priority 1997, dated 2002)
Where a name gives a salt, the structure may show the parent alone.

Legend:
[1] = biological target: T1, α4β1 integrin (Jurkat cell adhesion to immobilized CS-1 derived peptide CLHPGEILDVPST) (Homo sapiens, UniProt P05556+P13612); assay: Jurkat-CS-1 Assay; format: cell-based; conditions: Jurkat cells on CS-1 peptide coated plates
T1 construct: 100 μl of Jurkat cells (2.5×10^6 cells/ml) in DMEM plus BSA; endogenous in cells; host or cells: Jurkat T-cell line
T1 sequence (P13612 34-1032): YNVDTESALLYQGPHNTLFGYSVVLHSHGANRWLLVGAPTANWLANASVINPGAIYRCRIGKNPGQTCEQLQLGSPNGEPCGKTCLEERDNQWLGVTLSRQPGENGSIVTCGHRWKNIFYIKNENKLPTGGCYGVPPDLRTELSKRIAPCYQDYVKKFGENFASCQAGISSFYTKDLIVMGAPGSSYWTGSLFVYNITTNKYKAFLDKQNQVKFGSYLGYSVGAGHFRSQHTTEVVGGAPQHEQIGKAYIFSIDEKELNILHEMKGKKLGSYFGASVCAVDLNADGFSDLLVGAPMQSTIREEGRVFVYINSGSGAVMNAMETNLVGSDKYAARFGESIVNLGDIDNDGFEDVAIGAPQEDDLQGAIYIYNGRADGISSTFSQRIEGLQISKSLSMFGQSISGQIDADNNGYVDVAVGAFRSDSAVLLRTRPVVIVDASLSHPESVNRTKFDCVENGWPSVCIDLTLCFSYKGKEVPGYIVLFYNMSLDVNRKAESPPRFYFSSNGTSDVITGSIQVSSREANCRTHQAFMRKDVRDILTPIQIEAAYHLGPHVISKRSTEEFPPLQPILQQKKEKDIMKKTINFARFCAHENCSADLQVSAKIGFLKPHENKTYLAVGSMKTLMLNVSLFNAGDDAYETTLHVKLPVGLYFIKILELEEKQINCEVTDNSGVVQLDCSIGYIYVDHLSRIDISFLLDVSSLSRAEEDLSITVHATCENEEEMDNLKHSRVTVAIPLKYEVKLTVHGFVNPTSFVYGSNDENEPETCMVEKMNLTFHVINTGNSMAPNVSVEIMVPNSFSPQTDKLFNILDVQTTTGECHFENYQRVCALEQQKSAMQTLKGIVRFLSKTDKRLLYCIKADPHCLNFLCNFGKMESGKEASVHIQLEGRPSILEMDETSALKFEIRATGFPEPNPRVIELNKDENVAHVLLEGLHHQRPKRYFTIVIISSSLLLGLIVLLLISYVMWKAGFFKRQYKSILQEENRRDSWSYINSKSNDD
T1 sequence (P05556 21-798): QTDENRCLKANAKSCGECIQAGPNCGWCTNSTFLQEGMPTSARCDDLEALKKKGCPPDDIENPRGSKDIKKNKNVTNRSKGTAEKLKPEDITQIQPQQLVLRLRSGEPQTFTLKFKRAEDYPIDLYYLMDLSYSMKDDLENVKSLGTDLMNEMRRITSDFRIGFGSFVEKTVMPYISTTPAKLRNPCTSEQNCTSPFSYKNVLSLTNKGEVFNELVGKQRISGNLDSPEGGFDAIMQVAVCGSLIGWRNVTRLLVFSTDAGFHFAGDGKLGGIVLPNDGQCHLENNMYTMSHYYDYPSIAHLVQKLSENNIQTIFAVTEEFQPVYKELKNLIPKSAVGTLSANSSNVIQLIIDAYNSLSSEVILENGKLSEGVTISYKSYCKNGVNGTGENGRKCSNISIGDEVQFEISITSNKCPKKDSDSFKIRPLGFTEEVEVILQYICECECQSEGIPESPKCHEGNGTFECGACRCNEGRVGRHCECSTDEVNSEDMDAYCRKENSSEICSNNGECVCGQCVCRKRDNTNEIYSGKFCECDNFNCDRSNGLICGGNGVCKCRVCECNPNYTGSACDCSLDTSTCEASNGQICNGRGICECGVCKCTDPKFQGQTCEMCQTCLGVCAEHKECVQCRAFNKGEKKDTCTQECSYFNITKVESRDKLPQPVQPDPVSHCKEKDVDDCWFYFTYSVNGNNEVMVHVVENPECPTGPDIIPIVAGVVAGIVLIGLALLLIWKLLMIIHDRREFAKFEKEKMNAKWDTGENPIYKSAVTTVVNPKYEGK
Experimental: The CS-1 derived peptide, CLHPGEILDVPST, and the scrambled control peptide, CLHGPIELVSDPT, were synthesized on a Beckman 990 synthesizer using t-Boc methodology. The peptides were immobilized onto microtiter plates using the heterobifunctional crosslinker 3-(2-pyridyldithio)propionic acid N-hydroxysuccinimide ester (SPDP) as reported by Pierschbacher et al., Proc. Natl. Acad. USA, 80:1224-1227 (1983). Microtiter plates were coated with 20 μg/ml HSA for 2 hr. at room temperature, washed once with PBS and derivatized with 10 μg/ml SPDP for 1 hr. After washing, 100 μl of a 100 μg/ml cysteine containing peptide solution which had been recently dissolved was added to the wells and allowed to crosslink to the plates overnight at 4° C. Unbound peptide was removed from plates by washing with PBS. To block non-reacted sites, the plates are coated with 100 μl of a 2.5 mg/ml BSA solution in PBS for 1 hr. at 37° C. 100 μl of Jurkat cells (2.5×10^6 cells/ml) in DMEM plus BSA (2.5 mg/ml) was mixed with an appropriate concentration of the compound to be tested and the mixture was added to peptide coated dishes and incubated for 1 hr. at 37° C. Generally 100, 20, 5 and 1.25 μM concentrations of the compound were tested.
Following this incubation the plates were washed once with PBS and the attached cells were fixed with 3% paraformaldehyde in PBS and stained with 0.5% toluidine blue in 3.7% formaldehyde. The cells were stained overnight at room temperature and the optical density at 590 nm of toluidine blue stained cells was determined using a vertical pathway spectrophotometer to quantitate attachment (VMAX Kinetic Microplate Reader, Molecular Devices, Menlo Park, Calif.). This procedure is a modification of a previously published method (Cardarelli et al, J. Biol. Chem., 269:18668-18673 (1994) and Cardarelli et al, Proc. Natl. Acad. Sci. USA, 83:2647-2651 (1986)).

[2] = biological target: T2, α4β1 integrin (Jurkat T-cell adhesion to IL-1 stimulated endothelial cell monolayers) (Homo sapiens, UniProt P05556+P13612); assay: Jurkat-Endothelial Cell Adhesion Assay (Jurkat EC); format: cell-based; conditions: Jurkat cells on IL-1 stimulated HUVEC monolayers
T2 construct: a T-cell line, Jurkat, known to express the α4β1 integrin; host or cells: Jurkat T-cell line
T2 sequence (P13612 34-1032): as the sequence (P13612 34-1032) above
T2 sequence (P05556 21-798): as the sequence (P05556 21-798) above
Experimental: The following assay established the activity of the present compounds in inhibiting β1-mediated cell adhesion in a representative in vitro system. This assay measures the adhesive interactions of a T-cell line, Jurkat, known to express the α4β1 integrin, to endothelial monolayers in the presence of test compounds. The test compounds were added in increasing concentrations to T-cells and then the T-cell compound mixture was added to IL-1 stimulated endothelial cell monolayers. The plates were incubated, washed and the percentage of attached cells was quantitated. […] Human umbilical vein endothelial cells were purchased from Clonetics (San Diego, Calif.) at passage number 2. The cells were grown on 0.5% porcine skin gelatin pre-coated flasks (Sigma, St. Louis Mo.) in EGM-UV media (Clonetics, San Diego, Calif.) supplemented with 10% fetal bovine serum. Cells are refed every 2-3 days reaching confluence by day 4 to 6. […] The endothelial cells are not used following passage 6. Am The T-cell line Jurkat was obtained from American Type Tissue Culture Collection (Rockville, Md.) and the cells were cultured in RPMI containing 10% fetal calf serum. The cells were washed twice in Hank's Balanced Salt Solution (HBSS) and resuspended in Dulbecco's […] Eagle's Media (DMEM) containing 2.5 mg/ml Human Serum Albumin (HSA). Jurkat cells (1×10^6 cells/ml) were stained with 10 ng/ml BCECF-AM z z (Molecular Probes, Eugene, Ore.)) in HBSS without phenol red. The cells were loaded with BCECF for 60 minutes in the dark at 37° C., washed 2 times, and resusupended in DMEM-HSA solution.
Confluent endothelial monolayers, grown in 96-well tissue culture plates, were stimulated for 4 hr. at 37° C. with 0.1 ng/ml (˜50 U/ml) recombinant IL-1 (Amgen, Thousand Oaks, Calif.). Following this incubation, the monolayers were washed twice with HBSS and 0.1 ml of DMEM-HSA solution was added. Jurkat cells (5×10^5 cells) were combined with the appropriate concentration of the test compound and 0.1 ml of the Jurkat cell-compound mixture was added to the endothelial cell monolayers. Generally, 100, 20, 5 and 1.25 μM compound concentrations were tested. […] The plates were placed on ice for 5 minutes to allow for Jurkat cell settling and the plates were incubated at 37° C. for 20 minutes. Following this incubation, the monolayers were washed twice with PBS containing 1 mM calcium chloride and 1 mM magnesium chloride and the plates were read using a Millipore Cytofluor 2300 (Marlboro, Mass.). Fluorescence in each well was measured as Arbitrary Fluorescence Units and percent adhesion in the absence of compound was adjusted to 100% and the % adhesion in the presence of compound was calculated. Monolayers were also fixed in 3% paraformaldehyde and evaluated microscopically to verify the adhesion. This procedure is a modification of a previously published method (Cardarelli et al., J. Biol. Chem. 269:18668-18673 (1994)).

melting point | IC50 [1] [nM] | IC50 [2] [nM] | Structure (SMILES)
106 to 108 °C |  |  | CC1(C)[C@@H](C(=O)O)CC[C@@]1(C)C(=O)N[C@H](CC(=O)O)Cc1ccc(OCc2c(Cl)cccc2Cl)cc1 (relative stereo) [Example 204, [1R-[1α(S*),3α]]-β-[[(3-Carboxy-1,2,2-trimethylcyclopentyl)carbonyl]amino]-4-[(2,6-dichlorophenyl)methoxy]-benzenebutanoic acid]
174 to 175 °C (dec.) |  |  | COC(=O)C(Cc1cn(Cc2ccc(Cl)c(Cl)c2)cn1)NC(=O)[C@H]1CC[C@@](C)(C(=O)O)C1(C)C (stereo in doubt) [Example 3, (1S-cis)-N-[(3-Carboxy-2,2,3-trimethylcyclopentyl)carbonyl]-1-[(3,4-dichlorophenyl)methyl]-L-histidine methyl ester]
 | ≤ 80 | ≤ 800 | CC1(C)[C@@H](C(=O)N[C@@H](Cc2ccc(NC(=O)c3ccccc3[N+](=O)[O-])cc2)C(=O)O)CC[C@@]1(C)C(=O)O [Example 102]
 | ≤ 80 | ≤ 800 | COC(=O)[C@H](Cc1ccc(NC(=O)c2cc(C(F)(F)F)ccc2C(F)(F)F)cc1)NC(=O)[C@H]1CC[C@@](C)(C(=O)O)C1(C)C [Example 103]
 | 80 to 500 | 800 to 5000 | CC1(C)[C@@H](C(=O)N[C@@H](Cc2ccc(C(=O)Nc3c(Cl)cccc3Cl)cc2)C(=O)O)CC[C@@]1(C)C(=O)O [Example 153]
 | ≤ 80 | ≤ 800 | CC1(C)[C@@H](C(=O)N[C@@H](Cc2ccc(NC(=O)c3c(Cl)cccc3Cl)cc2)C(=O)O)CC[C@@]1(C)/C=C/C(=O)O [Example 182, [1S-[1α,3α(E)]]-N-[[3-(2-Carboxyethenyl)-2,2,3-trimethylcyclopentyl]carbonyl]-4-[(2,6-dichlorobenzoyl)amino]-L-phenylalanine disodium salt]
 | 80 to 500 | 800 to 5000 | CC1(C)[C@@H](C(=O)O)CC[C@@]1(C)C(=O)N[C@@H](Cc1ccc(OCc2c(Cl)cccc2Cl)cc1)C(=O)O [Example 186, (1R-cis)-N-[(3-Carboxy-1,2,2-trimethylcyclopentyl)carbonyl]-O-[(2,6-dichlorophenyl)methyl]-L-tyrosine]
 | 80 to 500 | 800 to 5000 | CC1(C)[C@@H](C(=O)N[C@@H](Cc2ccc(OCc3c(Cl)cccc3Cl)cc2)C(=O)O)CC[C@@]1(C)C(=O)NCC(N)=O [Example 187, (1S-cis)-N-[[3-[[(2-amino-2-oxoethyl)-amino]carbonyl]-2,2,3-trimethylcyclopentyl]carbonyl]-O-[(2,6-dichlorophenyl)methyl]-L-tyrosine]
234 to 235 °C |  |  | CC(C)(C)OC(=O)[C@]1(C)CC[C@H](C(=O)N[C@@H](Cc2cn(Cc3ccc(Cl)c(Cl)c3)cn2)C(=O)O)C1(C)C [Example 202, (1S-cis)-1-[(3,4-Dichlorophenyl)methyl]-N-[[3-[(1,1-dimethylethoxy)carbonyl]-2,2,3-trimethylcyclopentyl]carbonyl]-L-histidine]
 | ≤ 80 | ≤ 800 | CC1(C)[C@@H](C(=O)N[C@@H](Cc2ccc(NC(=O)c3c(Cl)cccc3Cl)cc2)C(=O)O)CC[C@@]1(C)C(=O)NCCC(=O)O [Example 214]
 | ≤ 80 | ≤ 800 | CC1(C)[C@@H](C(=O)N[C@@H](Cc2ccc(NC(=O)c3c(Cl)cccc3Cl)cc2)C(=O)O)CC[C@@]1(C)C(=O)NCCC#N [Example 216, (1S-cis)-N-[[3-[[(2-Cyanoethyl)amino]carbonyl]-2,2,3-trimethylcyclopentyl]carbonyl]-4-[(2,6-dichlorobenzoyl)amino]-L-phenylalanine]
 | ≤ 80 | ≤ 800 | CC1(C)[C@@H](C(=O)N[C@@H](Cc2ccc(NC(=O)c3c(Cl)cccc3Cl)cc2)C(=O)O)CC[C@@]1(C)C(=O)NO [Example 219, (1S-cis)-4-[(2,6-Dichlorobenzoyl)amino]-N-[[3-[(hydroxyamino)carbonyl]-2,2,3-trimethyl-cyclopentyl]carbonyl]-L-phenylalanine]
 | 80 to 500 | 800 to 5000 | CC1(C)[C@@H](C(=O)N[C@@H](Cc2ccc(C(=O)Nc3ccc(-c4ccccc4)cc3)cc2)C(=O)O)CC[C@@]1(C)C(=O)O [Example 220]
 | 500 to 1000 | 5000 to 10000 | CC1(C)[C@@H](C(=O)N[C@@H](Cc2ccc(C(=O)Nc3ccc(Cl)cc3)cc2)C(=O)O)CC[C@@]1(C)C(=O)O [Example 221]
 | 80 to 500 | ≤ 800 | CC1(C)[C@@H](C(=O)N[C@@H](Cc2ccc(C(=O)Nc3ccccc3C(F)(F)F)cc2)C(=O)O)CC[C@@]1(C)C(=O)O [Example 222]
 | ≤ 80 | ≤ 800 | CC1(C)[C@@H](C(=O)N[C@@H](Cc2ccc(C(=O)Nc3c(Cl)cc(Cl)cc3Cl)cc2)C(=O)O)CC[C@@]1(C)C(=O)O [Example 223]
 | ≤ 80 | ≤ 800 | CC1(C)[C@@H](C(=O)N[C@@H](Cc2ccc(NC(=O)c3c(Cl)cccc3Cl)cc2)C(=O)O)CC[C@@]1(C)C(=O)N1CCOCC1 [Example 225, (1S-cis)-4-[(2,6-Dichlorobenzoyl)amino]-N-[[2,2,3-trimethyl-3-[(4-morpholinyl)carbonyl]-cyclopentyl]carbonyl]-L-phenylalanine]
 | 500 to 1000 | ≤ 800 | COC(=O)[C@H](Cc1ccc(NC(=O)c2cc(C(F)(F)F)ccc2Cl)cc1)NC(=O)[C@H]1CC[C@@](C)(C(=O)O)C1(C)C [Example 231, (1S-cis)-N-[(3-Carboxy-2,2,3-trimethyl-cyclopentyl)carbonyl]-4-[(2-chloro-5-trifluoromethylbenzoyl)amino]-L-phenylalanine methyl ester]
 | ≤ 80 | ≤ 800 | CC1(C)[C@@H](C(=O)N[C@@H](Cc2ccc(NC(=O)c3cc(C(F)(F)F)ccc3Cl)cc2)C(=O)O)CC[C@@]1(C)C(=O)O [Example 232, (1S-cis)-N-[(3-Carboxy-2,2,3-trimethyl-cyclopentyl)carbonyl]-4-[(2-chloro-5-trifluoromethylbenzoyl)amino]-L-phenylalanine]
 | 80 to 500 | 800 to 5000 | CC(C)(C)c1ccc(C(=O)Nc2ccc(C[C@H](NC(=O)[C@H]3CC[C@@](C)(C(=O)O)C3(C)C)C(=O)O)cc2)c(Cl)c1 [Example 253, (1S-cis)-N-[(3-Carboxy-2,2,3-trimethylcyclopentyl)carbonyl]-4-[[2-chloro-4-[(1,1-dimethyl)ethyl]benzoyl]amino]-L-phenylalanine]
